Results reported in patent US12378211B2, “Carbonic anhydrase inhibitors and antibiotics against multidrug resistant bacteria” (Purdue Research Foundation, priority 2018, dated 2025).
Converted amounts (≈) assume the structure as drawn.

How the values were obtained:
Assay in all cases: MIC, broth microdilution in TSB
Type in all cases: cell-based
[1] = system: Enterococcus fecalis Strain SF24413 NR31971; conditions: TSB, Table 7; for MIC: Enterococcus, read-out: MIC in TSB
Method: (§1) The minimum inhibitory concentrations (MICs) of the compounds and control drugs were determined using the broth microdilution method, according to guidelines outlined by the Clinical and Laboratory Standards Institute (CLSI). Enterococci strains were grown aerobically overnight on tryptone soya agar plates at 37° C., afterwards a bacterial solution equivalent to 0.5 McFarland standard was prepared and diluted in tryptone soy broth (TSB) to achieve a bacterial concentration of about 5×10^5 CFU/mL and seeded in 96-well well plates. Compounds and control drugs were added in the first row of the 96-well plates and serially diluted along the plates. Plates were then incubated aerobically at 37° C. for 18-20 hours. MICs reported in Table 1 are the minimum concentration of the compounds/control drugs that could inhibit completely the visual growth of the bacteria.

[2] = system: Enterococcus faecium Patient #2-1-NR-31909; conditions: TSB, Table 7; for MIC: Enterococcus faecium, read-out: MIC in TSB
Method: as §1

[3] = system: Enterococcus faecium E417-HM-965; conditions: TSB, Table 7; for MIC: Enterococcus faecium, E417HM965, read-out: MIC in TSB
Method: as §1

[4] = system: Enterococcus faecalis—S613 HM-334; conditions: TSB, Table 7; for MIC: Enterococcus, read-out: MIC in TSB
Method: as §1

[5] = system: Enterococcus fecalis Strain MMH594-NR31975; conditions: TSB, Table 7; for MIC: Enterococcus, read-out: MIC in TSB
Method: as §1

[6] = system: Enterococcus fecalis Strain SF 28073-NR31972; conditions: TSB, Table 7; for MIC: Enterococcus, read-out: MIC in TSB
Method: as §1

[7] = system: Enterococcus fecalis Strain SF 24397 NR31970; conditions: TSB, Table 7; for MIC: Enterococcus, read-out: MIC in TSB
Method: as §1

[8] = system: Enterococcus faecium Patient #3-1 NR-31912; conditions: TSB, Table 7; for MIC: Enterococcus faecium, read-out: MIC in TSB
Method: as §1

| Compound | MIC [1] [µg/mL] | MIC [2] [µg/mL] | MIC [3] [µg/mL] | MIC [4] [µg/mL] | MIC [5] [µg/mL] | MIC [6] [µg/mL] | MIC [7] [µg/mL] | MIC [8] [µg/mL] | MIC in TSB [1] [µg/mL] | MIC in TSB [2] [µg/mL] | MIC in TSB [3] [µg/mL] | MIC in TSB [4] [µg/mL] | MIC in TSB [5] [µg/mL] | MIC in TSB [6] [µg/mL] | MIC in TSB [7] [µg/mL] | MIC in TSB [8] [µg/mL] |
| --- | --- | --- | --- | --- | --- | --- | --- | --- | --- | --- | --- | --- | --- | --- | --- | --- |
| NS(=O)(=O)c1nnc(NC(=O)C2CCCCC2)s1 [CAI0022, N-(5-Sulfamoyl-1,3,4-thiadiazol-2-yl)cyclohexanecarboxamide] | 0.5 (≈ 1.72 µM) | 0.015 (≈ 0.0517 µM) | 0.25 (≈ 0.861 µM) | 0.25 (≈ 0.861 µM) | 0.25 (≈ 0.861 µM) | 0.25 (≈ 0.861 µM) | 0.25 (≈ 0.861 µM) | 0.125 (≈ 0.43 µM) | – | – | – | – | – | – | – | – |
| 3-cyclohexyl-N-(5-sulfamoyl-1,3,4-thiadiazol-2-yl) propenamide [CAI0019] | – | – | – | – | – | – | – | – | 0.015 | 0.003 | 0.007 | 0.007 | 0.015 | 0.015 | 0.015 | 0.007 |
| NS(=O)(=O)c1nnc(NCc2ccccc2)s1 [CAI0005, 5-(benzylamino)-1,3,4-thiadiazole-2-sulfonamide] | – | > 64 | > 64 | – | – | > 64 | – | – | – | – | – | – | – | – | – | – |
| CC(=O)Nc1nnc(S(C)(=O)=O)s1 [CAI0025, N-(5-(Methylsulfonyl)-1,3,4-thiadiazol-2-yl)acetamide] | > 128 | > 128 | > 128 | > 128 | > 128 | > 128 | > 128 | > 128 | – | – | – | – | – | – | – | – |
| NS(=O)(=O)c1nnc(NC(=O)C2CCCC2)s1 [CAI0023, N-(5-Sulfamoyl-1,3,4-thiadiazol-2-yl)cyclopentanecarboxamide] | 0.5 (≈ 1.81 µM) | 0.06 (≈ 0.217 µM) | 0.25 (≈ 0.905 µM) | 0.5 (≈ 1.81 µM) | 0.5 (≈ 1.81 µM) | 1 (≈ 3.62 µM) | 0.5 (≈ 1.81 µM) | 0.25 (≈ 0.905 µM) | – | – | – | – | – | – | – | – |
| CCCCCCC(=O)Nc1nnc(S(N)(=O)=O)s1 [CAI0027, N-(5-Sulfamoyl-1,3,4-thiadiazol-2-yl)heptanamide] | 0.015 (≈ 0.0513 µM) | 0.001 (≈ 0.00342 µM) | 0.015 (≈ 0.0513 µM) | 0.007 (≈ 0.0239 µM) | 0.015 (≈ 0.0513 µM) | 0.015 (≈ 0.0513 µM) | 0.007 (≈ 0.0239 µM) | 0.007 (≈ 0.0239 µM) | – | – | – | – | – | – | – | – |
| NS(=O)(=O)c1nnc(NC(=O)CC2CCCC2)s1 [CAI0021, 2-Cyclopentyl-N-(5-sulfamoyl-1,3,4-thiadiazol-2-yl)acetamide] | 0.06 (≈ 0.207 µM) | 0.003 (≈ 0.0103 µM) | 0.06 (≈ 0.207 µM) | 0.03 (≈ 0.103 µM) | 0.03 (≈ 0.103 µM) | 0.03 (≈ 0.103 µM) | 0.03 (≈ 0.103 µM) | 0.03 (≈ 0.103 µM) | – | – | – | – | – | – | – | – |
| NS(=O)(=O)c1nnc(NC(=O)C2CC2)s1 [CAI0020, N-(5-Sulfamoyl-1,3,4-thiadiazol-2-yl)cyclopropanecarboxamide] | 0.015 (≈ 0.0604 µM) | 0.001 (≈ 0.00403 µM) | 0.007 (≈ 0.0282 µM) | 0.007 (≈ 0.0282 µM) | 0.007 (≈ 0.0282 µM) | 0.003 (≈ 0.0121 µM) | 0.015 (≈ 0.0604 µM) | 0.007 (≈ 0.0282 µM) | – | – | – | – | – | – | – | – |
| NS(=O)(=O)c1nnc(NC(=O)C2CCC2)s1 [CAI0018, N-(5-Sulfamoyl-1,3,4-thiadiazol-2-yl)cyclobutanecarboxamide] | 1 (≈ 3.81 µM) | 0.25 (≈ 0.953 µM) | 0.5 (≈ 1.91 µM) | 1 (≈ 3.81 µM) | 0.5 (≈ 1.91 µM) | 1 (≈ 3.81 µM) | 1 (≈ 3.81 µM) | 0.5 (≈ 1.91 µM) | – | – | – | – | – | – | – | – |
| NS(=O)(=O)c1nnc(NCc2cccc(C(F)(F)F)c2)s1 [CAI0007, 5-((3-(trifluoromethyl)benzyl)amino)-1,3,4-thiadiazole-2-sulfonamide] | – | 8 (≈ 23.6 µM) | 8 (≈ 23.6 µM) | – | – | 4 (≈ 11.8 µM) | – | 8 (≈ 23.6 µM) | – | – | – | – | – | – | – | – |
| NS(=O)(=O)c1nnc(NCc2ccc(C(F)(F)F)cc2)s1 [CAI0008, 5-((4-(trifluoromethyl)benzyl)amino)-1,3,4-thiadiazole-2-sulfonamide] | – | > 64 | > 64 | – | – | > 64 | – | > 64 | – | – | – | – | – | – | – | – |
| CC(C)CC(=O)Nc1nnc(S(N)(=O)=O)s1 [CAI0026, 3-Methyl-N-(5-sulfamoyl-1,3,4-thiadiazol-2-yl)butanamide] | 0.25 (≈ 0.946 µM) | 0.003 (≈ 0.0113 µM) | 0.125 (≈ 0.473 µM) | 0.25 (≈ 0.946 µM) | 0.25 (≈ 0.946 µM) | 0.5 (≈ 1.89 µM) | 0.25 (≈ 0.946 µM) | 0.125 (≈ 0.473 µM) | – | – | – | – | – | – | – | – |
| NS(=O)(=O)c1nnc(NCc2cccc(Br)c2)s1 [CAI0004, 5-((3-bromobenzyl)amino)-1,3,4-thiadiazole-2-sulfonamide] | – | 8 (≈ 22.9 µM) | 16 (≈ 45.8 µM) | – | – | 8 (≈ 22.9 µM) | – | 8 (≈ 22.9 µM) | – | – | – | – | – | – | – | – |
| CC(C)(C)CC(=O)Nc1nnc(S(N)(=O)=O)s1 [CAI0028, 3,3-Dimethyl-N-(5-sulfamoyl-1,3,4-thiadiazol-2-yl)butanamide] | 0.03 (≈ 0.108 µM) | 0.003 (≈ 0.0108 µM) | 0.015 (≈ 0.0539 µM) | 0.03 (≈ 0.108 µM) | 0.03 (≈ 0.108 µM) | 0.03 (≈ 0.108 µM) | 0.015 (≈ 0.0539 µM) | 0.003 (≈ 0.0108 µM) | – | – | – | – | – | – | – | – |
| NS(=O)(=O)c1nnc(NCc2ccc(Br)cc2)s1 [CAI0003, 5-((4-bromobenzyl)amino)-1,3,4-thiadiazole-2-sulfonamide] | – | > 64 | > 64 | – | – | > 64 | – | > 64 | – | – | – | – | – | – | – | – |
| NS(=O)(=O)c1nnc(NCc2ccccc2C(F)(F)F)s1 [CAI0006, 5-((2-(trifluoromethyl)benzyl)amino)-1,3,4-thiadiazole-2-sulfonamide] | – | > 64 | > 64 | – | – | > 64 | – | – | – | – | – | – | – | – | – | – |
| NS(=O)(=O)c1nnc(NC(=O)CC2CCCCC2)s1 [CAI0029, 2-Cyclohexyl-N-(5-sulfamoyl-1,3,4-thiadiazol-2-yl)acetamide] | 0.03 (≈ 0.0986 µM) | 0.001 (≈ 0.00329 µM) | 0.06 (≈ 0.197 µM) | 0.015 (≈ 0.0493 µM) | 0.015 (≈ 0.0493 µM) | 0.015 (≈ 0.0493 µM) | 0.007 (≈ 0.023 µM) | 0.03 (≈ 0.0986 µM) | – | – | – | – | – | – | – | – |
| NS(=O)(=O)c1nnc(NCc2ccccc2Cl)s1 [CAI0002, 5-((2-chlorobenzyl)amino)-1,3,4-thiadiazole-2-sulfonamide] | – | > 64 | > 64 | – | – | > 64 | – | > 64 | – | – | – | – | – | – | – | – |
| NS(=O)(=O)c1nnc(NCc2ccc(Cl)cc2)s1 [CAI0001, 5-((4-chlorobenzyl)amino)-1,3,4-thiadiazole-2-sulfonamide] | – | 8 (≈ 26.2 µM) | > 64 | – | – | > 64 | – | > 64 | – | – | – | – | – | – | – | – |
